Reference: patent US9062308B2, “Compositions and methods for treatment of tamoxifen resistant breast cancer” (The Johns Hopkins University, priority 2011, dated 2015)

Tests used:
[1] = system: EGFR, p44/42 MAPK, ARG and TGFα; assay: EGFR activity and EGFR ligand levels in MCF-7-B7 cells after ER downregulation; assay type: cell-based
Experimental: (§1) FIG. 3 depicts evidence that HOXB7 promotes TAM resistance. (3A) Immunoblot analysis of Phospho-EGFR, EGFR, P-MAPK, MAPK and HOXB7 expression levels in MCF-7-Vec and MCF-7-HOXB7 cells. (3B) Tumor growth curve of MCF-7-HOXB7 cells implanted s.c. in athymic Swiss female mice and treated with either vehicle or TAM (83.3 μg/day), in the absence of an exogenous estrogen supplement. […] (3D) Semi quantitative RT-PCR analysis of mRNA expression levels of TGFα, HB-EGF and Amphiregulin in HOXB7 expressing MCF-7 cells and their vector controls (left); Amphiregulin or TGFα mRNA expression in MCF-7-vec and MCF-7-B7 cells treated with either scrambled sequence siRNA or ERα-specific siRNA (right) (3E) Diagram representing the HOXB7 binding sites in EGFR promoter region. MCF-7 cells were transfected with pcDNA3-Flag-HOXB7 and Vector plasmid, ChIP was performed by IP with either anti-Flag M2 antibody or control IgG. (3F) Luciferase activity of deletion/truncation constructs of the EGFR promoter, with (solid box) and without (slashed box) transfected HOXB7 plasmid, to map minimal region necessary for activation by HOXB7.

LTED cells = conditions: MCF-7-LTED cells; cited from earlier work
[2] = system: ERα-positive breast cancer; conditions: patients with acquired resistance who progress on TAM; cited from earlier work
MCF-7-TMR cells = assay: Soft agar colony formation in MCF-7-TMR cells; assay type: cell-based
Experimental: (§2) (2A) Immunoblot analysis of Phospho-EGFR (Y1068), EGFR, Phospho-MAPK, MAPK, Phospho-ERα (S118), ERα, and HOXB7 expression in MCF-7 cells treated long-term with either vehicle or 0.1 μM TAM (TMR1) or 1 μM TAM (TMR2). (2B) Immunoblot analysis of EGFR, Phospho-MAPK, MAPK and HOXB7 expression in MCF-7-TMR cells and BT474 transfected with either scrambled sequence siRNA or HOXB7-specific siRNA. (2C) Soft agar colony formation in BT474 cells and MCF-7-TMR cells transfected with either scrambled sequence siRNA or HOXB7-specific siRNA treated with Vehicle or 1 μM TAM.
(§3) HOXB7 in the acquisition of anti-estrogen resistance. Because of the observation of a striking similarity in phenotype between prolonged endocrine therapy primed TAM-resistant models and our HOXB7 overexpressing cells, the hypothesis that HOXB7 is a mediator of anti-estrogen resistance was investigated. MCF-7 cell lines were derived, and exposed to either vehicle or TAM (0.1 μM or 1 μM) for over 12 months (designated MCF-7-TMR1 or MCF-7-TMR2 respectively).

MCF-7-B7 cells [3] = assay: Soft agar colony formation by MCF-7-B7 cells; assay type: cell-based
Experimental: as §1

MCF-7-Vec cells = assay: TAM treatment in culture, apoptosis and cell viability, MCF-7-Vec cells; assay type: cell-based; conditions: MCF-7-Vec cells in culture
MCF-7-B7 cells [4] = assay: TAM treatment in culture, apoptosis and cell viability, MCF-7-B7 cells; assay type: cell-based; conditions: MCF-7-B7 cells in culture
MCF-7-B7 xenografts = assay: Xenograft analysis, tumor growth of MCF-7-B7 cells implanted s.c. in athymic mice; assay type: in vivo; conditions: MCF-7-B7 xenografts in immunodeficient mice; TAM 83.3 μg/day; no exogenous estrogen supplement
Experimental: as §1
Xenograft Analysis. […] At necropsy, primary tumors, liver, lung and spleen were evaluated for the presence of macroscopic tumors. […]

[5] = system: EGFR, p44/42 MAPK and ERα phosphorylation; assay: EGFR signaling in estrogen deprived MCF-7-B7 cells treated with TAM; assay type: cell-based
Excerpt: These observations indicate that under the treatment conditions, nongenomic ERα action occurred to activate EGFR signaling.

HOXB7 mRNA = assay: Real time quantitative PCR analysis of HOXB7 mRNA levels; assay type: cell-based
Experimental: (4A) Real time quantitative PCR analysis of HOXB7 mRNA levels in MCF-7 cells. Cells were incubated in estrogen deprived condition for 72 hours [DMEM phenol red-free medium containing 5% Dextran charcoal stripped serum (DCC-FBS)]; the cells were then treated with 0.1-100 nM estrogen (E2); […]; Inset: Semi-quantitative RT-PCR analysis of HOXB7 mRNA following 1 uM TAM treatment for 24 hour. (4B) Real time quantitative PCR analysis of HOXB7. mRNA levels in MDA-MB-231 and MDA-MB-453 cells were transiently transfected with ERα expression plasmid and vector control for 48 hours. ERIN, a ERα overexpressed cell line, was used with MCF10A as a control. (4C) Immunoblot analysis of HOXB7 and ERα expression levels in transient transfectants of MDA-MB-231-ERα.
Real-time PCR of HOXB7 expression. HOXB7 gene expression was quantitated by Taqman real-time quantitative PCR in triplicate in 96-well plate using an ABI 7900HT (Applied Biosystems) using cDNA derived from our previously published cohort of tumor samples (Cancer research 62(3):827-834). The sequences of the HOXB7 PCR primer pairs and fluorogenic MGB probe (5′ to 3′), respectively, are: AAAACCTACCACTCGCGTGTTC (SEQ ID NO: 5), GGA CGG GAA GCA AGA AGC A (SEQ ID NO: 6), and VIC-CAA GCG CCT GGC TG (SEQ ID NO: 7).

[6] = system: EGFR, MAPK, ERα and HOXB7; assay: Immunoblot analysis of MCF-7 cells treated long-term with TAM; assay type: cell-based
Experimental: as §2, §3

BT474 cells = assay: Soft agar colony formation in BT474 cells; assay type: cell-based; conditions: 1 μM gefitinib and 1 μM TAM
Experimental: as §2

TGFα and HB-EGF = TGFα and HB-EGF expression in MCF-10A-B7 cells under EGFR inhibition; assay type: cell-based

## C[C@]12CC[C@@H]3c4ccc(O)cc4C[C@@H](CCCCCCCCC[S+]([O-])CCCC(F)(F)C(F)(F)F)[C@H]3[C@@H]1CC[C@@H]2O (stereo partly shown) [fulvestrant]
[1]; HOXB7 overexpression (MCF-7-B7 cells)
  EGFR and p44/42 MAPK activity: modestly reduced increases in EGFR and p44/42 MAPK activity
[1]; MCF-7-B7 cells
  levels of the autocrine/paracrine EGFR ligands (ARG and TGFα): significant reduction
LTED cells
  sensitivity of LTED cells: sensitive
[2]
  patients who respond: 20%

## CC/C(=C(\c1ccccc1)c1ccc(OCCN(C)C)cc1)c1ccccc1 [TAM, tamoxifen]
MCF-7-TMR cells; MCF-7-TMR1 cells (0.1 μM TAM for over 12 months), data not shown
  resistance to TAM treatment by colony formation assay: significant resistance to TAM treatment
MCF-7-B7 cells [3]; TAM 1 μM
  colony formation in soft agar in the presence of tamoxifen: at frequencies similar to vehicle treated cells
MCF-7-Vec cells
  apoptosis and cell viability: increased apoptosis and decreased cell viability
MCF-7-B7 cells [4]
  sensitivity to TAM treatment (apoptosis, cell viability): minimally sensitive
MCF-7-B7 xenografts
  tumor growth response to TAM: failed to respond to the inhibitory effects of TAM
[5]; MCF-7-B7 cells in estrogen deprived conditions, TAM for 24 hours, vs MCF-7-Vec cells
  active EGFR, p44/42 MAPK activity and ERα phosphorylation: significantly higher levels of active forms of EGFR, increased p44/42 MAPK activity and ERα phosphorylation
[5]; estrogen deprived MCF-7-B7 cells, 1 μM TAM for 0-30 minutes, data not shown
  phosphorylation of EGFR, p44 MAPK and ER: elevated phosphorylation of EGFR, activation of p44 MAPK, and ER phosphorylation at Serine 118
HOXB7 mRNA; MCF-7 and T47D cells, tamoxifen in medium containing 10% FBS
  HOXB7 mRNA levels: increased
HOXB7 mRNA; tamoxifen added to estradiol
  downregulation of HOXB7 expression by estradiol: abrogated
[6]; MCF-7-TMR cells (long-term TAM)
  HOXB7 expression: upregulated
[6]; MCF-7 cells, 0.1 μM TAM, 0, 2, 4, 6 months, data not shown
  levels of HOXB7 expression over time: progressively increasing levels of HOXB7 expression
[6]; MCF-7 cells, TAM 0.1 μM or 1 μM for over 12 months
  expression of EGFR, activated MAPK and ERα, total ERα: elevated expression of EGFR and activated MAPK and ERα, but no significant change of total ERα
LTED cells
  sensitivity of LTED cells: refractory

## COc1cc2ncnc(Nc3ccc(F)c(Cl)c3)c2cc1OCCCN1CCOCC1 [gefitinib]
BT474 cells
  effect on TAM action, soft agar colony formation: dramatically converted TAM to a potent antagonist
MCF-7-TMR cells; MCF-7-TMR cells, 1 μM gefitinib and 1 μM TAM
  effect on TAM action, soft agar colony formation: dramatically converted TAM to a potent antagonist
MCF-7-B7 cells [3]; 1 μM gefitinib with TAM 1 μM
  re-sensitization to TAM treatment, soft agar colony formation: significantly re-sensitized them to TAM treatment

## COc1cc2ncnc(Nc3cccc(Cl)c3)c2cc1OC [AG1478]
TGFα and HB-EGF
  elevated expression of TGFα and HB-EGF: significantly abrogated

## C[C@]12CC[C@@H]3c4ccc(O)cc4CC[C@H]3[C@@H]1CC[C@@H]2O [estradiol, 17β-estradiol]
HOXB7 mRNA; estradiol stimulation in estrogen-deprived growth conditions (5% charcoal stripped serum)
  HOXB7 expression: significantly reduced
